# From ChEMBL document CHEMBL5126507, “P2Y12 antagonists: Approved drugs, potential naturally isolated and synthesised compounds, and related in-silico studies” (Eur J Med Chem, 2022)
# Assays:
# [1] = Antiplatelet activity in human platelet rich plasma assessed as inhibition of ADP-induced platelet aggregation preincubated for 5 mins followed by ADP addition and measured after 5 mins; assay type: functional, cell-based
# [2] = biological target: T1, P2Y purinoceptor 12 (Homo sapiens, UniProt Q9H244); assay: Displacement of [3H]2MeSADP from human P2Y12 expressed in U2OS cell membranes incubated for 60 mins by scintillation counting method; parameters: species or system Membrane
# [3] = biological target: T1, P2Y purinoceptor 12; assay: Binding affinity to human P2Y12 expressed in astrocytoma cells; assay type: cell-based, Astrocyte
# [4] = Antiplatelet activity in human platelet rich plasma assessed as inhibition of ADP-induced platelet aggregation preincubated for 2 mins followed by ADP addition and measured after 6 mins by Born method; assay type: functional, cell-based
# [5] = system: Blood; assay: Ex vivo inhibition of platelet aggregation in Sprague-Dawley rat blood at 3 mg/kg, iv measured after 2 hrs; assay type: functional; parameters: scale not given: the % may be the effect or the level left
# [6] = system: Blood; assay: Ex vivo inhibition of platelet aggregation in Sprague-Dawley rat blood at 10 mg/kg, po measured after 2 hrs; assay type: functional; parameters: scale not given: the % may be the effect or the level left
# [7] = system: Blood; assay: Ex vivo inhibition of platelet aggregation in Sprague-Dawley rat blood at 1 mg/kg, iv measured after 2 hrs; assay type: functional
# [8] = Antiplatelet activity in rat platelet rich plasma assessed as inhibition of ADP-induced platelet aggregation preincubated for 1 min followed by ADP addition and measured after 6 mins by Born method; assay type: functional, cell-based
# [9] = Antiplatelet activity in human platelet rich plasma assessed as inhibition of ADP-induced platelet aggregation preincubated for 1 min followed by ADP addition and measured after 6 to 8 mins by Born method; assay type: functional, cell-based
# [10] = system: Blood; assay: Ex vivo inhibition of platelet aggregation in Sprague-Dawley rat blood at 3 mg/kg, po measured after 2 hrs; assay type: functional
# [11] = Antiplatelet activity in human platelet rich plasma assessed as inhibition of ADP-induced platelet aggregation preincubated for 2 mins followed by ADP addition for 5 mins; assay type: functional, cell-based
# [12] = system: Blood; assay: Ex vivo inhibition of platelet aggregation in Sprague-Dawley rat blood at 3 mg/kg, iv measured after 30 mins; assay type: functional; settings: 0.5 h
# [13] = species: Rattus norvegicus; assay: Anti-platelet aggregation activity in Sprague-Dawley rat assessed as reduction in bleeding time; assay type: functional
# [14] = biological target: T1, P2Y purinoceptor 12; assay: Displacement of tritium-labeled 2MeSADP from human P2Y12 expressed in CHO cells measured after 2 hrs by scintillation counting method; assay type: cell-based
# [15] = biological target: T1, P2Y purinoceptor 12; assay: Displacement of [3H]2MeSADP from P2Y12 (unknown origin)
# [16] = Antiplatelet activity in human platelet rich plasma assessed as inhibition of ADP-induced platelet aggregation preincubated for 5 mins followed by ADP addition and measured after 20 mins by microplate reader analysis; assay type: functional, cell-based
# [17] = Antiplatelet activity in human platelet rich plasma assessed as inhibition of CaCl2/fibrinogen-induced platelet aggregation preincubated for 5 mins followed by CaCl2/fibrinogen addition by microplate reader analysis; assay type: functional, cell-based
# [18] = biological target: T1, P2Y purinoceptor 12; assay: Inhibition of 2-MeS-ADP induced P2Y12 (unknown origin) signalling expressed in CHO cells membrane incubated for 45 mins by 35S-GTPgammaS assay; assay type: functional, cell membranes
# [19] = Antiplatelet activity in human platelet rich plasma assessed as inhibition of thrombin-induced platelet aggregation at 3 uM preincubated for 2 mins followed by thrombin addition by turbidimetric method relative to control; assay type: functional; parameters: scale not given: the % may be the effect or the level left
# [20] = Antiplatelet activity in human platelet rich plasma assessed as inhibition of collagen-induced platelet aggregation at 3 uM preincubated for 2 mins followed by collagen addition by turbidimetric method relative to control; assay type: functional; parameters: scale not given: the % may be the effect or the level left
# [21] = Antiplatelet activity in rabbit platelet rich plasma assessed as inhibition of ADP-induced platelet aggregation preincubated for 5 mins followed by ADP addition and measured after 5 mins by turbidimetric method; assay type: functional, cell-based; settings: Oryctolagus cuniculus
# [22] = Antiplatelet activity in human platelet rich plasma assessed as inhibition of ADP-induced platelet aggregation at 10 uM preincubated for 2 mins followed by ADP addition by turbidimetric method relative to control; assay type: functional; parameters: scale not given: the % may be the effect or the level left
# [23] = biological target: T1, P2Y purinoceptor 12; assay: Displacement of 2-MeS[3H]-ADP from P2Y12 (unknown origin) expressed in HEK293 cells preincubated for 5 mins followed by 2-MeS[3H]-ADP addition and measured after 30 mins by Topcount beta counter analysis; assay type: cell-based
# [24] = Anti-platelet aggregation activity in rat platelets assessed as inhibition of ADP-induced aggregation pre-treated for 5 mins followed by ADP addition and measured after 5 mins; assay type: functional, cell-based
# [25] = Anti-platelet aggregation activity in rat platelet rich plasma assessed as inhibition of ADP-induced aggregation at 250 ug/ml pre-treated for 5 mins followed by ADP addition by hemocytometer analysis; assay type: functional; parameters: scale not given: the % may be the effect or the level left; settings: dose 250 µg/ml
# [26] = biological target: T1, P2Y purinoceptor 12; assay: Binding affinity to P2Y12 (unknown origin)
# [27] = Lipophilicity, logP of compound; assay type: physicochemical; settings: octanol/water
# [28] = Antiplatelet activity in rabbit platelet rich plasma assessed as inhibition of ADP-induced platelet aggregation at 150.8 uM preincubated for 3 mins followed by ADP addition and measured after 5 mins relative to control; assay type: functional, Oryctolagus cuniculus; parameters: scale not given: the % may be the effect or the level left; settings: time 8 min
# [29] = Anti-platelet aggregation activity in human platelets assessed as inhibition of epinephrine induced aggregation; assay type: functional, cell-based
# [30] = biological target: P2Y purinoceptor 1 (Homo sapiens, UniProt P47900); assay: Displacement of [3H]2MeSADP from human P2Y1 expressed in U2OS cell membranes incubated for 60 mins by scintillation counting method; parameters: species or system Membrane
# Sequence of P2Y purinoceptor 1 (P47900 whole entry): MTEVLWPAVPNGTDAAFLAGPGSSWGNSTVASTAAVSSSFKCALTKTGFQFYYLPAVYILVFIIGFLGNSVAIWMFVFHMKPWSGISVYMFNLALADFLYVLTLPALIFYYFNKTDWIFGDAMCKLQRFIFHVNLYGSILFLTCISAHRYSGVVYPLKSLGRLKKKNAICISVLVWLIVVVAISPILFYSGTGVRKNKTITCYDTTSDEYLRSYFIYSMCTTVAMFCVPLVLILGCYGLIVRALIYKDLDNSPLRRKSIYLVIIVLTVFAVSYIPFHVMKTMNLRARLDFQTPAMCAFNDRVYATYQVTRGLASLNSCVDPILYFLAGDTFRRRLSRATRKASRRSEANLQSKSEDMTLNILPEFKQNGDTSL
# T1 sequence (Q9H244 whole entry): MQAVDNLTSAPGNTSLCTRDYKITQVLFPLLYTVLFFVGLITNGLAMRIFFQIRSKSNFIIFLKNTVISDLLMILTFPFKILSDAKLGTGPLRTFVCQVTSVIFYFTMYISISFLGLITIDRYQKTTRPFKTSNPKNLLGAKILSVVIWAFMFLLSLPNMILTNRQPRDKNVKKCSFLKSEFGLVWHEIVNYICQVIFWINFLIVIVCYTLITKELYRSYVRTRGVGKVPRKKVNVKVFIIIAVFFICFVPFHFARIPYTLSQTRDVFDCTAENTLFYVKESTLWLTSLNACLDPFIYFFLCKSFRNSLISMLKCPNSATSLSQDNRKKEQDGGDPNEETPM
smiles,measurement,setting,value
COc1cc(/C=C/c2cc(O)cc(O)c2)ccc1O,IC50,[1],1.85 µM
O=C(/C=C/c1ccc(O)c2c1[C@H](C(=O)O[C@H](Cc1ccc(O)c(O)c1)C(=O)O)[C@@H](c1ccc(O)c(O)c1)O2)O[C@H](Cc1ccc(O)c(O)c1)C(=O)O,Ki,[2],36.4 µM
Cc1cc(C)cc(Nc2cc(S(=O)(=O)O)c(N)c3c2C(=O)c2ccccc2C3=O)c1,Ki,[3],0.063 µM
Cc1c(N)cccc1Nc1cc(S(=O)(=O)O)c(N)c2c1C(=O)c1ccccc1C2=O,Ki,[3],0.025 µM
O=C(O)CC[C@H](NC(=O)c1cc(OCC(=O)N2CCC[C@H]2C(=O)NC2CCC2)n(-c2ccccc2)n1)C(=O)N1CCN(C(=O)OC2CCC2)CC1,IC50,[4],≤ 0.011 µM
CCOC(=O)N1CCN(C(=O)[C@H](CCC(=O)O)NC(=O)c2cc(OCC(=O)N3CCC[C@H]3C(=O)NC3CC3)n(-c3ccccc3)n2)CC1,IC50,[4],≤ 0.011 µM
CCOC(=O)N1CCN(C(=O)[C@H](CCC(=O)O)NC(=O)c2cc(OCC(=O)N3CCC[C@H]3C(=O)NC3CCCC3)n(-c3ccccc3)n2)CC1,IC50,[4],≤ 0.011 µM
CCCC(=O)c1cnn(-c2ccc(NC(=O)c3cn(CC(=O)N4CCN(C)CC4)c4ccc(Cl)cc34)nn2)c1C,Activity,[5],79%
same,Activity,[6],73.5%
CCCC(=O)c1cnn(-c2cnc(NC(=O)c3cn(CC(=O)N4CCN(C)CC4)c4ccc(Cl)cc34)cn2)c1C,Activity,[6],76%
same,inhibition in vivo at 1 mg/kg,[7],86.3%
CCCC(=O)c1cnn(C2CCN(NC(=O)c3cn(CC(=O)N4CCN(C)CC4)c4ccc(Cl)cc34)CC2)c1C,IC50,[8],0.043 µM
same,inhibition in vivo at 1 mg/kg,[7],88%
same,IC50,[9],0.025 µM
same,inhibition in vivo at 3 mg/kg,[10],72%
Cc1cc(Nc2ccc(Nc3ccccc3)c(S(=O)(=O)O)c2)c2c(c1N)C(=O)c1ccccc1C2=O,Ki,[3],0.051 µM
CCCCOC(=O)N1CCN(C(=O)[C@H](CP(=O)(OCOC(=O)OC(C)C)OCOC(=O)OC(C)C)NC(=O)c2cc(N3CC[C@H](OC)C3)nc(-c3ccccc3)n2)CC1,IC50,[11],0.008 µM
CCCC(=O)c1cnn(C2CCC(NC(=O)c3cn(CC(=O)N4CCN(C)CC4)c4ccc(Cl)cc34)CC2)c1C (stereo not given),IC50,[8],0.091 µM
same,inhibition in vivo at 3 mg/kg,[12],79%
same,IC50,[9],0.27 µM
same,inhibition in vivo at 3 mg/kg,[10],42.8%
COC(=O)C(c1ccccc1Cl)N1CCc2sc(OC(=O)C(N)CC(C)C)cc2C1.Cl (stereo not given),ED50,[13],2.16 mg/kg
CCCCOC(=O)N1CCN(C(=O)[C@H](CCC(=O)O)NC(=O)c2nc(-c3ccccc3)sc2N2CC[C@H](OC)C2)CC1,IC50,[14],0.001 µM
C[C@H]([C@@H](O)[C@H](O)[C@@H](C)C(C)(C)C)[C@H]1CC[C@H]2[C@@H]3CC[C@H]4C[C@@H](OS(=O)(=O)O)[C@H](OS(=O)(=O)O)C[C@]4(C)[C@H]3CC[C@]12C,IC50,[15],2.2 µM
CCCCOC(=O)N1CCN(C(=O)[C@H](CP(=O)(O)O)NC(=O)c2csc(-c3ccccc3)n2)CC1,IC50,[14],0.001 µM
CCOC(=O)N1CCN(C(=O)[C@H](CCC(=O)O)NC(=O)c2cc(OCC(=O)N[C@@H](C)C(=O)O)n(-c3ccccc3)n2)CC1,IC50,[16],1.48 µM
CCOC(=O)N1CCN(C(=O)[C@H](CCC(=O)O)NC(=O)c2cc(OCC(=O)N3CCC[C@H]3C(=O)NCC(F)(F)F)n(-c3ccccc3)n2)CC1,IC50,[4],≤ 0.011 µM
C[C@H](CC[C@@H](C)C(C)(C)C)[C@H]1CC[C@H]2[C@@H]3C[C@H](OS(=O)(=O)O)[C@H]4C[C@@H](OS(=O)(=O)O)[C@H](OS(=O)(=O)O)C[C@]4(C)[C@H]3CC[C@]12C,IC50,[15],0.48 µM
CCCSc1nc(N[C@@H]2C[C@H]2c2ccccc2)c2nnn([C@@H]3C=C[C@H](OCC(=O)O)[C@@H](O)[C@H]3O)c2n1,IC50,[17],2.91 µM
CCCC(=O)c1cc(C#N)c(N(C(=O)C2CCNCC2)S(=O)(=O)Cc2cccc(F)c2)nc1C,IC50,[18],0.1 µM
CCNC(=O)[C@@H]1CCCN1C(=O)COc1cc(C(=O)N[C@@H](CCC(=O)O)C(=O)N2CCN(C(=O)OCC)CC2)nc2cccc(F)c12,IC50,[16],0.03 µM
CCCC(=O)c1cc(C#N)c(N(C(=O)C2CCNCC2)S(=O)(=O)CCc2ccccc2)nc1C,IC50,[18],0.26 µM
CC1CC(=O)NN=C1c1ccc(NC(=N)N)cc1 (stereo not given),Activity,[19],100%
same,Activity,[20],100%
same,IC50,[21],0.197 µM
same,Activity,[22],95.09%
CCCCOC(=O)N1CCN(C(=O)[C@H](CCP(=O)(O)O)NC(=O)c2cc(N3CC[C@H](OC)C3)nc(-c3ccccc3)n2)CC1,IC50,[11],0.001 µM
CCOC(=O)N1CCN(C(=O)[C@H](CCC(=O)O)NC(=O)c2cc(OCC(=O)N3CCC[C@H]3C(=O)NC3CCC3)n(-c3cccc(F)c3)n2)CC1,IC50,[4],≤ 0.011 µM
CCCCOC(=O)N1CCN(C(=O)[C@H](CP(=O)(O)O)NC(=O)c2nc(-c3ccccc3)sc2N2CCN(C)CC2)CC1,IC50,[14],0.001 µM
CCCCOC(=O)N1CCN(C(=O)[C@H](CCC(=O)O)NC(=O)c2cc(OCC(=O)N3CCC[C@H]3C(=O)N(C)C3CC3)n(-c3ccccc3)n2)CC1,IC50,[4],≤ 0.011 µM
CCOC(=O)N1CCN(C(=O)[C@H](Cc2ccc(P(=O)(O)O)cc2)NC(=O)c2csc(-c3ccccc3)n2)CC1,IC50,[14],0.001 µM
CCCSc1nc(N[C@@H]2C[C@H]2c2ccccc2)c2nnn([C@@H]3CC[C@H](O)[C@@H](O)[C@H]3O)c2n1,IC50,[23],1.35 µM
CC(C)CCCC(C)[C@H]1CC[C@]2(C)[C@@H]1[C@H](O)C[C@@H]1[C@@]3(C)CC[C@H](O)C(C)(C)[C@@H]3[C@@H](O[C@@H]3O[C@H](CO)[C@@H](O)[C@H](O)[C@H]3O)C[C@]12C (stereo not given in full),IC50,[24],30.9 µM
CCC(C)C(N)C(=O)Oc1cc2c(s1)CCN(C(C(=O)C1CC1)c1ccccc1F)C2.Cl (stereo not given),ED50,[13],0.74 mg/kg
CCCCOC(=O)N1CCN(C(=O)[C@H](CP(=O)(O)O)NC(=O)c2nc(-c3ccccc3)sc2N(C)CCCC)CC1,IC50,[14],0.001 µM
CCOC(=O)N1CCN(C(=O)[C@@H](CCC(=O)O)NC(=O)c2cc(Cl)cc(-c3ccccc3)n2)CC1,IC50,[14],0.034 µM
CCOC(=O)N1CCN(C(=O)[C@H](CCC(=O)O)NC(=O)c2cc(O[C@H](C)C(=O)N3CCC[C@H]3C(=O)NC3CCCC3)c3ccc(C)cc3n2)CC1,IC50,[16],0.03 µM
CC(=O)CCC1=C(C)C[C@@H](O[C@@H]2O[C@H](CO[C@@H]3OC[C@@H](O)[C@H](O)[C@H]3O)[C@@H](O)[C@H](O)[C@H]2O)CC1(C)C,Activity,[25],89.59%
Cc1cnc(-c2cnc(N3CCN(C(=O)NS(=O)(=O)c4ccccc4)CC3)c(Cl)c2)o1,IC50,[26],0.32 µM
COC(=O)[C@H](c1ccccc1Cl)N1CCc2sccc2C1 [CLOPIDOGREL],logP,[27],3.74
COc1cc2c(cc1OC)-c1c(C)c3ccc(OC)c(OC)c3c[n+]1CC2 [DEHYDROCORYDALINE],Activity,[28],73.48%
C[C@@H]1CC[C@]2(C(=O)O)CC[C@]3(C)C(=CC[C@@H]4[C@@]5(C)CC[C@H](O)C(C)(C)[C@@H]5CC[C@]43C)[C@@H]2[C@]1(C)O [POMOLIC ACID],IC50,[29],0.02 µM
CC(=O)Oc1cc2c(s1)CCN(C(C(=O)C1CC1)c1ccccc1F)C2 (stereo not given) [PRASUGREL],logP,[27],3.42
O=C(/C=C/c1ccc(O)c(O)c1/C=C/c1ccc(O)c(O)c1)O[C@H](Cc1ccc(O)c(O)c1)C(=O)O [SALVIANOLIC ACID A],Ki,[30],20.3 µM
Clc1ccccc1CN1CCc2sccc2C1 [TICLOPIDINE],logP,[27],4.05
